Columns and labels:
bedstraw = test: Test B pre/postemergence bedstraw; type: in vivo, Galium aparine; details: for Bedstraw plant response rating: Rate 500 g/ha
In short: (§1)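 Response is a visual 0-to-10 score relative to untreated plants, where 0 means no effect and 10 means complete control, taken twelve to sixteen days after application. Treatments went onto soil at planting and onto foliage of 1- to 4-leaf plants, using a surfactant-containing non-phytotoxic solvent.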

blackgrass = test: Test B pre/postemergence blackgrass; type: in vivo, Alopecurus myosuroides
In short: as §1

surinam grass = test: Test B pre/postemergence surinam grass; type: in vivo, Brachiaria decumbens
In short: as §1

cocklebur = test: Test B pre/postemergence cocklebur; type: in vivo, Xanthium strumarium
In short: as §1

corn = test: Test B pre/postemergence corn; type: in vivo, Zea mays
In short: as §1

crabgrass = test: Test B pre/postemergence crabgrass; type: in vivo, Digitaria sanguinalis
In short: as §1

giant foxtail = test: Test B pre/postemergence giant foxtail; type: in vivo, Setaria faberii
In short: as §1

morningglory = test: Test B pre/postemergence morningglory; type: in vivo, Ipomoea hederacea
In short: as §1

pigweed = test: Test B pre/postemergence pigweed; type: in vivo, Amaranthus retroflexus
In short: as §1

rape = test: Test B pre/postemergence rape; type: in vivo, Brassica napus
In short: as §1

soybean = test: Test B pre/postemergence soybean; type: in vivo, Glycine max
In short: as §1

sugar beet = test: Test B pre/postemergence sugar beet; type: in vivo, Beta vulgaris
In short: as §1

velvetleaf = test: Test B pre/postemergence velvetleaf; type: in vivo, Abutilon theophrasti
In short: as §1

wheat = test: Test B pre/postemergence wheat; type: in vivo, Triticum aestivum
In short: as §1

wild oat = test: Test B pre/postemergence wild oat; type: in vivo, Avena fatua
In short: as §1

purple nutsedge = test: Test B pre/postemergence purple nutsedge; type: in vivo, Cyperus rotundus
In short: as §1

[1] = Preemergence, Rate 62 g/ha, scale 0 to 10, 0 is no effect, 10 is complete control
[2] = Preemergence, Rate 125 g/ha, scale 0 to 10 (0 no effect, 10 complete control)
[3] = Preemergence, Rate 250 g/ha, scale of 0 to 10 where 0 is no effect and 10 is complete control
[4] = Postemergence, Rate 62 g/ha, scale 0 to 10, 0 is no effect, 10 is complete control
[5] = Postemergence, Rate 250 g/ha, scale 0 to 10, 0 no effect, 10 complete control
[6] = Preemergence, Rate 500 g/ha, scale 0 (no effect) to 10 (complete control)
[7] = Rate 125 g/ha, Postemergence, scale 0 to 10, 0 no effect, 10 complete control
[8] = Rate 500 g/ha, Postemergence, 0 to 10 scale (0 no effect, 10 complete control)

## Cc1ccccc1-n1c(=O)on(C(=O)N(c2ccc(C(F)(F)F)cc2)C(C)C)c1=O [Compound 39]
bedstraw; [1]
  Plant response rating, Bedstraw: 0
bedstraw; [2]
  Plant response rating, Bedstraw: 0
bedstraw; [3]
  Plant response rating, Bedstraw: 0
bedstraw; Preemergence, scale 0 (no effect) to 10 (complete control)
  Bedstraw plant response rating: 0
bedstraw; Postemergence, 0 to 10 scale (0 no effect, 10 complete control)
  Bedstraw plant response rating: 0
blackgrass; [4]
  Blackgrass plant response rating: 0
blackgrass; [5]
  Blackgrass plant response rating: 0
blackgrass; [1]
  Plant response rating, Blackgrass: 0
blackgrass; [2]
  Plant response rating, Blackgrass: 0
blackgrass; [3]
  Plant response rating, Blackgrass: 0
blackgrass; [6]
  Blackgrass plant response rating: 0
blackgrass; [7]
  Blackgrass plant response rating: 0
blackgrass; [8]
  Blackgrass plant response rating: 0
Surinam grass; [4]
  B. signalgrass plant response rating: 0
Surinam grass; [5]
  B. signalgrass plant response rating: 0
Surinam grass; [1]
  Plant response rating, B. signalgrass: 0
Surinam grass; [2]
  Plant response rating, B. signalgrass: 0
Surinam grass; [3]
  Plant response rating, B. signalgrass: 0
Surinam grass; [6]
  B. signalgrass plant response rating: 0
Surinam grass; [7]
  B. signalgrass plant response rating: 0
Surinam grass; [8]
  B. signalgrass plant response rating: 0
cocklebur; [4]
  Cocklebur plant response rating: 0
cocklebur; [5]
  Cocklebur plant response rating: 0
cocklebur; [1]
  Plant response rating, Cocklebur: 0
cocklebur; [2]
  Plant response rating, Cocklebur: 0
cocklebur; [3]
  Plant response rating, Cocklebur: 0
cocklebur; [6]
  Cocklebur plant response rating: 0
cocklebur; [7]
  Cocklebur plant response rating: 0
cocklebur; [8]
  Cocklebur plant response rating: 0
corn; [4]
  Corn plant response rating: 0
corn; [5]
  Corn plant response rating: 0
corn; [1]
  Plant response rating, Corn: 0
corn; [2]
  Plant response rating, Corn: 0
corn; [3]
  Plant response rating, Corn: 0
corn; [6]
  Corn plant response rating: 0
corn; [7]
  Corn plant response rating: 0
corn; [8]
  Corn plant response rating: 0
crabgrass; [4]
  Crabgrass plant response rating: 0
crabgrass; [5]
  Crabgrass plant response rating: 3
crabgrass; [1]
  Plant response rating, Crabgrass: 0
crabgrass; [2]
  Plant response rating, Crabgrass: 3
crabgrass; [3]
  Plant response rating, Crabgrass: 5
crabgrass; [6]
  Crabgrass plant response rating: 6
crabgrass; [7]
  Crabgrass plant response rating: 0
crabgrass; [8]
  Crabgrass plant response rating: 4
Giant foxtail; [4]
  Giant foxtail plant response rating: 0
Giant foxtail; [5]
  Giant foxtail plant response rating: 0
Giant foxtail; [1]
  Plant response rating, Giant foxtail: 0
Giant foxtail; [2]
  Plant response rating, Giant foxtail: 0
Giant foxtail; [6]
  Giant foxtail plant response rating: 10
Giant foxtail; [7]
  Giant foxtail plant response rating: 0
Giant foxtail; [8]
  Giant foxtail plant response rating: 0
morningglory; [4]
  Morningglory plant response rating: 0
morningglory; [5]
  Morningglory plant response rating: 0
morningglory; [1]
  Plant response rating, Morningglory: 0
morningglory; [2]
  Plant response rating, Morningglory: 0
morningglory; [3]
  Plant response rating, Morningglory: 0
morningglory; [6]
  Morningglory plant response rating: 0
morningglory; [7]
  Morningglory plant response rating: 0
morningglory; [8]
  Morningglory plant response rating: 0
pigweed; [4]
  Redroot pigweed plant response rating: 0
pigweed; [5]
  Redroot pigweed plant response rating: 0
pigweed; [1]
  Plant response rating, Redroot pigweed: 0
pigweed; [2]
  Plant response rating, Redroot pigweed: 5
pigweed; [3]
  Plant response rating, Redroot pigweed: 6
pigweed; [6]
  Redroot pigweed plant response rating: 6
pigweed; [7]
  Redroot pigweed plant response rating: 0
pigweed; [8]
  Redroot pigweed plant response rating: 0
rape; [4]
  Rape plant response rating: 0
rape; [5]
  Rape plant response rating: 0
rape; [1]
  Plant response rating, Rape: 2
rape; [2]
  Plant response rating, Rape: 0
rape; [3]
  Plant response rating, Rape: 0
rape; [6]
  Rape plant response rating: 0
rape; [7]
  Rape plant response rating: 0
rape; [8]
  Rape plant response rating: 0
soybean; [4]
  Soybean plant response rating: 3
soybean; [5]
  Soybean plant response rating: 4
soybean; [1]
  Plant response rating, Soybean: 0
soybean; [2]
  Plant response rating, Soybean: 0
soybean; [3]
  Plant response rating, Soybean: 0
soybean; [6]
  Soybean plant response rating: 0
soybean; [7]
  Soybean plant response rating: 4
Sugar beet; [4]
  Sugarbeets plant response rating: 0
Sugar beet; [5]
  Sugarbeets plant response rating: 0
Sugar beet; [1]
  Plant response rating, Sugarbeets: 2
Sugar beet; [2]
  Plant response rating, Sugarbeets: 0
Sugar beet; [3]
  Plant response rating, Sugarbeets: 0
Sugar beet; [6]
  Sugarbeets plant response rating: 0
Sugar beet; [7]
  Sugarbeets plant response rating: 0
velvetleaf; [5]
  Velvetleaf plant response rating: 0
velvetleaf; [1]
  Plant response rating, Velvetleaf: 0
velvetleaf; [2]
  Plant response rating, Velvetleaf: 0
velvetleaf; [3]
  Plant response rating, Velvetleaf: 0
velvetleaf; [6]
  Velvetleaf plant response rating: 0
velvetleaf; [7]
  Velvetleaf plant response rating: 0
wheat; [4]
  Wheat plant response rating: 0
wheat; [5]
  Wheat plant response rating: 0
wheat; [1]
  Plant response rating, Wheat: 0
wheat; [2]
  Plant response rating, Wheat: 0
wheat; [3]
  Plant response rating, Wheat: 0
wheat; [6]
  Wheat plant response rating: 0
wheat; [7]
  Wheat plant response rating: 0
Wild oat; [4]
  Wild oats plant response rating: 0
Wild oat; [5]
  Wild oats plant response rating: 0
Wild oat; [2]
  Plant response rating, Wild oats: 0
Wild oat; [3]
  Plant response rating, Wild oats: 0
Wild oat; [6]
  Wild oats plant response rating: 0
Wild oat; [7]
  Wild oats plant response rating: 0
Purple nutsedge; [4]
  Nutsedge plant response rating: 0
Purple nutsedge; [5]
  Nutsedge plant response rating: 0
Purple nutsedge; [1]
  Plant response rating, Nutsedge: 0
Purple nutsedge; [2]
  Plant response rating, Nutsedge: 0
Purple nutsedge; [3]
  Plant response rating, Nutsedge: 0
Purple nutsedge; [6]
  Nutsedge plant response rating: 0
Purple nutsedge; [7]
  Nutsedge plant response rating: 0
Purple nutsedge; [8]
  Nutsedge plant response rating: 0
